IC50 data for 26 compounds are collected here from US10576062B2, “Carbamoyloxymethyl triazole cyclohexyl acids as LPA antagonists” (Bristol-Myers Squibb Company, priority 2016, dated 2020).

The structures appear in SMILES notation.

In one test the target is T1, human LPA1 (Homo sapiens, UniProt Q92633).
T1 construct: expressed in transfected cells; host or cells: Chinese hamster ovary (CHO) cells
T1 sequence (Q92633 whole entry): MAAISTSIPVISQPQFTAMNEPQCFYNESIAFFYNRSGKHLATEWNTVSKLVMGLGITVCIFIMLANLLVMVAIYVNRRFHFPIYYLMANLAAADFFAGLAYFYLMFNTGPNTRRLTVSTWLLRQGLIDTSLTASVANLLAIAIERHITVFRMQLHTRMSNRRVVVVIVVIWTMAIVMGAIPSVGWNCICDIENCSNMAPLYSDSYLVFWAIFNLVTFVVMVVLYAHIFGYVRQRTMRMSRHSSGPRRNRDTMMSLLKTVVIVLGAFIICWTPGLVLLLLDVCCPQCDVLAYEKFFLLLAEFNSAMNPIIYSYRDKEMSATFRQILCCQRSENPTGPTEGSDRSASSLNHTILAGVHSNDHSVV
The experiment in a line: LPA1 functional antagonist assay (LPA-induced calcium flux). The settings on record: CHO cells overexpressing human LPA1; inhibition of calcium flux induced by 10 nM LPA; read-out: hLPA1 IC50. In kind it is cell-based. In short, it runs like this: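 CHO cells overexpressing human LPA1, loaded with calcium dye 30 min at 37° C, were preincubated 20 min at room temperature with compound (0.08 nM–5 μM, 0.5% DMSO) in HBSS/20 mM HEPES/0.1% fatty acid-free BSA.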
(Calcium flux is commonly read through the fluorescence of an indicator in the cells.)
As for `CCc1nc(-c2nnn(C)c2COC(=O)N(C)CC2CC2)ccc1O[C@H]1CCC[C@H](C(=O)O)C1` [Example 194, (1S,3S)-3-((6-(5-((((cyclopropylmethyl)(methyl)carbamoyl)oxy)methyl)-1-methyl-1H-1,2,3-triazol-4-yl)-2-ethylpyridin-3-yl)oxy)cyclohexane-1-carboxylic acid], the concentration for half-maximal inhibition (IC50) turned out to be 0.014 µM. Same read-out and setting: then `CCc1nc(-c2nnn(C)c2COC(=O)N(C)C2CCCC2)ccc1O[C@H]1CCC[C@H](C(=O)O)C1` [Example 195, (1S,3S)-3-((6-(5-(((cyclopentyl(methyl)carbamoyl)oxy)methyl)-1-methyl-1H-1,2,3-triazol-4-yl)-2-ethylpyridin-3-yl)oxy)cyclohexane-1-carboxylic acid], with 0.011 µM; and `CCc1nc(-c2nnn(C)c2COC(=O)N(C)CC(C)C)ccc1O[C@H]1CCC[C@H](C(=O)O)C1` [Example 197, (1S,3S)-3-((2-ethyl-6-(5-(((isobutyl(methyl)carbamoyl)oxy)methyl)-1-methyl-1H-1,2,3-triazol-4-yl)pyridin-3-yl)oxy)cyclohexane-1-carboxylic acid], with 0.027 µM; and `CCc1nc(-c2nnn(C)c2COC(=O)NCc2ccccc2)ccc1O[C@H]1CCC[C@H](C(=O)O)C1` [Example 198, (1S,3S)-3-((6-(5-(((benzylcarbamoyl)oxy)methyl)-1-methyl-1H-1,2,3-triazol-4-yl)-2-ethylpyridin-3-yl)oxy)cyclohexane-1-carboxylic acid], with 0.046 µM. On the same count and under the same terms, the same measure for `CCCCN(C)C(=O)OCc1c(-c2ccc(O[C@H]3CCC[C@H](C(=O)O)C3)c(CC)n2)nnn1C` [Example 199, (1S,3S)-3-((6-(5-(((butyl(methyl)carbamoyl)oxy)methyl)-1-methyl-1H-1,2,3-triazol-4-yl)-2-ethylpyridin-3-yl)oxy)cyclohexane-1-carboxylic acid]: 0.007 µM. The same measure, in the same setting: the same measure for `CCCN(C)C(=O)OCc1c(-c2ccc(O[C@H]3CCC[C@H](C(=O)O)C3)c(CC)n2)nnn1C` [Example 200, (1S,3S)-3-((2-ethyl-6-(1-methyl-5-(((methyl(propyl)carbamoyl)oxy)methyl)-1H-1,2,3-triazol-4-yl)pyridin-3-yl)oxy)cyclohexane-1-carboxylic acid]: 0.011 µM; for `CCc1nc(-c2nnn(C)c2COC(=O)N(C)Cc2ccccc2)ccc1O[C@H]1CCC[C@H](C(=O)O)C1` [Example 201, (1S,3S)-3-((6-(5-(((benzyl(methyl)carbamoyl)oxy)methyl)-1-methyl-1H-1,2,3-triazol-4-yl)-2-ethylpyridin-3-yl)oxy)cyclohexane-1-carboxylic acid]: 0.025 µM; for `CCc1nc(-c2nnn(C)c2COC(=O)N(C)CC)ccc1O[C@H]1CCC[C@H](C(=O)O)C1` [Example 202, (1S,3S)-3-((2-ethyl-6-(5-(((ethyl(methyl)carbamoyl)oxy)methyl)-1-methyl-1H-1,2,3-triazol-4-yl)pyridin-3-yl)oxy)cyclohexane-1-carboxylic acid]: 0.16 µM.

For `CCc1nc(-c2nnn(C)c2COC(=O)N(C)C2CCC2)ccc1O[C@H]1CCC[C@H](C(=O)O)C1` [Example 203, (1S,3S)-3-((6-(5-(((cyclobutyl(methyl)carbamoyl)oxy)methyl)-1-methyl-1H-1,2,3-triazol-4-yl)-2-ethylpyridin-3-yl)oxy)cyclohexane-1-carboxylic acid], the IC50 was determined as 0.008 µM. On to `CCc1nc(-c2nnn(C)c2COC(=O)N2CC(C)(C)C2)ccc1O[C@H]1CCC[C@H](C(=O)O)C1` [Example 204, (1S,3S)-3-((6-(5-(((3,3-dimethylazetidine-1-carbonyl)oxy)methyl)-1-methyl-1H-1,2,3-triazol-4-yl)-2-ethylpyridin-3-yl)oxy)cyclohexane-1-carboxylic acid], for which the IC50 turned out to be 0.102 µM. On the same count and under the same terms, the same measure for `CCc1nc(-c2nnn(C)c2COC(=O)NC23CC(C2)C3)ccc1O[C@H]1CCC[C@H](C(=O)O)C1` [Example 205, (1S,3S)-3-((6-(5-(((bicyclo[1.1.1]pentan-1-ylcarbamoyl)oxy)methyl)-1-methyl-1H-1,2,3-triazol-4-yl)-2-ethylpyridin-3-yl)oxy)cyclohexane-1-carboxylic acid]: 0.842 µM; for `CCc1nc(-c2nnn(C)c2COC(=O)N(C)C23CC(C2)C3)ccc1O[C@H]1CCC[C@H](C(=O)O)C1` [Example 206, (1S,3S)-3-((6-(5-(((bicyclo[1.1.1]pentan-1-yl(methyl)carbamoyl)oxy)methyl)-1-methyl-1H-1,2,3-triazol-4-yl)-2-ethylpyridin-3-yl)oxy)cyclohexane-1-carboxylic acid]: 0.034 µM.

With `CCCC1(N(C)C(=O)OCc2c(-c3ccc(O[C@H]4CCC[C@H](C(=O)O)C4)c(CC)n3)nnn2C)CC1` [Example 207, (1S,3S)-3-((2-ethyl-6-(1-methyl-5-(((methyl(1-propylcyclopropyl)carbamoyl)oxy)methyl)-1H-1,2,3-triazol-4-yl)pyridin-3-yl)oxy)cyclohexane-1-carboxylic acid], the IC50 was 0.133 µM. As to `CCc1nc(-c2nnn(C)c2COC(=O)N(C)CCC(C)C)ccc1O[C@H]1CCC[C@H](C(=O)O)C1` [Example 208, (1S,3S)-3-((2-ethyl-6-(5-(((isopentyl(methyl)carbamoyl)oxy)methyl)-1-methyl-1H-1,2,3-triazol-4-yl)pyridin-3-yl)oxy)cyclohexane-1-carboxylic acid], the IC50 came out at 0.026 µM.

For `CCc1nc(-c2nnn(C)c2COC(=O)N(C)CCC2CC2)ccc1O[C@H]1CCC[C@H](C(=O)O)C1` [Example 209, (1S,3S)-3-((6-(5-((((2-cyclopropylethyl)(methyl)carbamoyl)oxy)methyl)-1-methyl-1H-1,2,3-triazol-4-yl)-2-ethylpyridin-3-yl)oxy)cyclohexane-1-carboxylic acid], the half-inhibitory concentration (IC50) was 0.022 µM. Still for that read-out and setting: then `CCc1nc(-c2nnn(C)c2COC(=O)N2CC3(CCC3)C2)ccc1O[C@H]1CCC[C@H](C(=O)O)C1` [Example 210, (1S,3S)-3-((6-(5-(((2-azaspiro[3.3]heptane-2-carbonyl)oxy)methyl)-1-methyl-1H-1,2,3-triazol-4-yl)-2-ethylpyridin-3-yl)oxy)cyclohexane-1-carboxylic acid], with 0.067 µM. Still for that read-out and setting: then `CCc1nc(-c2nnn(C)c2COC(=O)N2CCC3(CC3)C2)ccc1O[C@H]1CCC[C@H](C(=O)O)C1` [Example 211, (1S,3S)-3-((6-(5-(((5-azaspiro[2.4]heptane-5-carbonyl)oxy)methyl)-1-methyl-1H-1,2,3-triazol-4-yl)-2-ethylpyridin-3-yl)oxy)cyclohexane-1-carboxylic acid], with 0.047 µM; and `CCCCN(C)C(=O)OCc1c(-c2cnc(O[C@H]3CCC[C@H](C(=O)O)C3)cn2)nnn1C` [Example 212, (1S,3S)-3-((5-(5-(((butyl(methyl)carbamoyl)oxy)methyl)-1-methyl-1H-1,2,3-triazol-4-yl)pyrazin-2-yl)oxy)cyclohexane-1-carboxylic acid], with 0.04 µM; and `CN(CC1CC1)C(=O)OCc1c(-c2cnc(O[C@H]3CCC[C@H](C(=O)O)C3)cn2)nnn1C` [Example 213, (1S,3S)-3-((5-(5-((((cyclopropylmethyl)(methyl)carbamoyl)oxy)methyl)-1-methyl-1H-1,2,3-triazol-4-yl)pyrazin-2-yl)oxy)cyclohexane-1-carboxylic acid], with 1.07 µM. Same read-out and setting: then `CN(CC1CCC1)C(=O)OCc1c(-c2cnc(O[C@H]3CCC[C@H](C(=O)O)C3)cn2)nnn1C` [Example 214, (1S,3S)-3-((5-(5-((((cyclobutylmethyl)(methyl)carbamoyl)oxy)methyl)-1-methyl-1H-1,2,3-triazol-4-yl)pyrazin-2-yl)oxy)cyclohexane-1-carboxylic acid], with 0.068 µM; and `CN(C(=O)OCc1c(-c2cnc(O[C@H]3CCC[C@H](C(=O)O)C3)cn2)nnn1C)C1CCCC1` [Example 215, (1S,3S)-3-((5-(5-(((cyclopentyl(methyl)carbamoyl)oxy)methyl)-1-methyl-1H-1,2,3-triazol-4-yl)pyrazin-2-yl)oxy)cyclohexane-1-carboxylic acid], with 0.084 µM; and `CCCN(C)C(=O)OCc1c(-c2cnc(O[C@H]3CCC[C@H](C(=O)O)C3)c(C)n2)nnn1C` [Example 218, (1S,3S)-3-((3-methyl-5-(1-methyl-5-(((methyl(propyl)carbamoyl)oxy)methyl)-1H-1,2,3-triazol-4-yl)pyrazin-2-yl)oxy)cyclohexane-1-carboxylic Acid], with 0.194 µM. As to `CCCCN(C)C(=O)OCc1c(-c2cnc(O[C@H]3CCC[C@H](C(=O)O)C3)c(C)n2)nnn1C` [Example 219, (1S,3S)-3-((5-(5-(((butyl(methyl)carbamoyl)oxy)methyl)-1-methyl-1H-1,2,3-triazol-4-yl)-3-methylpyrazin-2-yl)oxy)cyclohexane-1-carboxylic acid], the IC50 came out at 0.021 µM.

The same test, now with this note: human LPA1; read-out: hLPA1 IC50.
With `Cc1nc(-c2nnn(C)c2COC(=O)NCCCCF)ccc1O[C@H]1CCC[C@H](C(=O)O)C1` [Example 191, (1S,3S)-3-((6-(5-((((4-fluorobutyl)carbamoyl)oxy)methyl)-1-methyl-1H-1,2,3-triazol-4-yl)-2-methylpyridin-3-yl)oxy)cyclohexane-1-carboxylic acid], the IC50 is 0.553 µM. Same read-out and setting: the same measure for `Cc1nc(-c2nnn(C)c2COC(=O)N(C)CCCCF)ccc1O[C@H]1CCC[C@H](C(=O)O)C1` [Example 192, (1S,3S)-3-((6-(5-((((4-fluorobutyl)(methyl)carbamoyl)oxy)methyl)-1-methyl-1H-1,2,3-triazol-4-yl)-2-methylpyridin-3-yl)oxy)cyclohexane-1-carboxylic acid]: 0.036 µM. On the same count and under the same terms, the same measure for `CCCN(C)C(=O)OCc1c(-c2ccc(O[C@@H]3CCC[C@@H](C(=O)O)C3)c(C)n2)nnn1C` [Example 193, (1R,3R)-3-((2-methyl-6-(1-methyl-5-(((methyl(propyl)carbamoyl)oxy)methyl)-1H-1,2,3-triazol-4-yl)pyridin-3-yl)oxy)cyclohexane-1-carboxylic acid]: 1.7 µM.

Broadly, the IC50 is the midpoint of a concentration-inhibition curve.
